Like-named read-outs stand apart in the source and are kept apart here.
Experiments:
[1] = target: T1, K15A-TTR (Homo sapiens, UniProt P02766, K35A); experiment: Fluorimetric assay with recombinant K15A-TTR; format: binding
T1 construct: composed of 127-residue β-sheet-rich subunits; made in house
Protocol: [The source words this procedure for another variant and says it was used here with some conditions changed.] The excitation spectra are shown with dotted traces (λmax=328 nm), and emission spectra are adjacently (λmax=384 nm). Very low fluorescence resulted from 328 nm excitation of stilbene Compounds 4 or 2 alone in buffer (FIGS. 4A and 4B; traces substantially on the X-axis).
WT-TTR was expressed in an E. coli expression system and purified as described previously. [Lashuel et al., Biochemistry 1999, 38, 13560-13573] The covalent TTR modifiers (A1 or A2) or the non-covalent TTR ligand B2 (5 μL of a 1.44 mM solution in DMSO, final concentration: 7.2 μM) were added to 1 mL of a solution of WT-TTR homotetramer (0.2 mg/mL, 3.6 μM) in 10 mM phosphate, 100 mM KCl and 1 mM EDTA (pH 7.0 phosphate buffer) in a 2 mL Eppendorf tube. The samples were vortexed, and incubated for 18 h at 25° C. The fluorescence changes were monitored using a Varian Cary 50 spectrofluorometer at 20° C. in a 1 cm path length quartz cell. The excitation slit was set at 5 nm and the emission slit was set at […]. The samples were excited at 328 nm and the emission spectra were collected from 350 to 550 nm.
WT-TTR was expressed and purified from an E. coli expression system as described previously. [Lashuel et al., Biochemistry 1999, 38:13560]. The covalent modifiers (Compounds 4 or 2) or the non-covalent TTR ligand Compound B2 (5 μL of a 1.44 mM solution in DMSO) were added to 1 mL of a solution of WT-TTR (0.2 mg/mL, 3.6 μM) in 10 mM phosphate, 100 mM KCl and 1 mM EDTA (pH 7.0) in a 2 mL Eppendorf tube. The samples were vortexed, and incubated for 18 hours at 25° C. The fluorescence changes were monitored using a Varian Cary 50 spectrofluorometer at 20° C. in a 1 cm path length quartz cell. The excitation slits was set at 5 nm and the emission slits was set at […]. The samples were excited at 328 nm and the emission spectra were collected from 330 to 550 nm (FIG. 4). The time-dependent fluorescence changes were monitored in similar manner (FIG. 5).

[2] = test system: IMR-32 cells; experiment: Compound cytotoxicity to IMR-32 cells in the absence of WT-TTR; format: cell-based, human
Protocol: Metabolically active cells reduce the resazurin redox dye to resorufin, a soluble fluorescent compound. [O'Brien et al., Eur. J. Biochem. 267:5421-5426 (2002)] The percentage of viable cells was calculated relative to cells treated with vehicle only (cell culture media and DMSO=100% viable).
The human neuroblastoma IMR-32 cell line (CCL-127 ATCC) was maintained in Opti-MEM® medium (Invitrogen), supplemented with 5% FBS, 1 mM Hepes buffer, 2 mM L-glutamine, 100 units/mL penicillin, 100 μg/mL streptomycin and 0.05 mg/mL CaCl2 (complete cell medium). Cells were seeded in black wall, clear bottom, tissue culture treated 96-well plates (Costar) at a density of 6,000 cells/well in complete cell medium and incubated overnight (about 18 hours) at 37° C.
Recombinant WT-TTR purified in the cold was used as the cytotoxic insult. The protein was buffer-exchanged in Hanks' Balanced Salt Solution (HBSS, Mediatech, Manassas, Va.) at 10° C. using a Centriprep® filter device (10 kDa MWCO, Millipore). Compounds (16 mM in DMSO) were diluted 1:1000 with WT-TTR (16 μM in HBSS, filter sterilized) or with HBSS only, vortexed and incubated for 18 hours at 37° C. WT-TTR (16 μM in HBSS) containing the same amount of DMSO was prepared in parallel and incubated under the same conditions.
The medium was removed from the cells and replaced immediately by the TTR/compound mixtures or HBSS previously diluted 1:1 in Opti-MEM® supplemented with 0.8 mg/mL BSA, 2 mM Hepes buffer, 4 mM L-glutamine, 200 units/mL penicillin, 200 μg/mL streptomycin and 0.1 mg/mL CaCl2. The cells were incubated 24 hours at 37° C. Cell viability was evaluated by a resazurin reduction assay.
Briefly, 10 μL of resazurin (500 μM, PBS) was added to each well and fluorescence quantified in a plate reader (Ex/Em 530/590 nm, Tecan Safire 2, Austria) after 1 hour of incubation at 37° C. Cell viability was calculated as percentage of fluorescence relative to cells treated only with vehicle (100% viability) after subtraction of blank fluorescence (wells without cells). Averages and standard errors from 2 independently performed studies, each performed at least in triplicate, were calculated using GraphPrism (San Diego, Calif., US).

[3] = target: T2, WT-TTR (Homo sapiens, UniProt P02766); experiment: Fluorimetric assay with recombinant WT-TTR; format: binding; settings: for increase in fluorescence intensity with WT-TTR vs compound alone in buffer: 24 hours
T2 construct: composed of 127-residue β-sheet-rich subunits; made in house; host or cells: E. coli
Protocol: WT-TTR was expressed in an E. coli expression system and purified as described previously. […] The samples were vortexed, and incubated for 18 h at 25° C. […] The excitation slit was set at 5 nm and the emission slit was set at […]. The samples were excited at 328 nm and the emission spectra were collected from 350 to 550 nm. WT-TTR was expressed and purified from an E. coli expression system as described previously. [Lashuel et al., Biochemistry 1999, 38:13560]. […] The samples were vortexed, and incubated for 18 hours at 25° C. […] The excitation slits was set at 5 nm and the emission slits was set at […]. The samples were excited at 328 nm and the emission spectra were collected from 330 to 550 nm (FIG. 4). The time-dependent fluorescence changes were monitored in similar manner (FIG. 5).

Row | Compound | fluorescence upon binding to K15A-TTR (in words) [1] | cytotoxicity to IMR-32 cells in the absence of WT-TTR [2] | t50 of conjugation to WT-TTR by fluorescence ([3]; WT-TTR […], compound 7.2 μM) | increase in fluorescence intensity with WT-TTR vs compound alone in buffer ([3]; WT-TTR […], compound 7.2 μM) | cytotoxicity to IMR-32 cells in the absence of WT-TTR ([2]; human, IMR-32 neuroblastoma cells, 24 h, 8 µM) | fluorescence after incubation with WT-TTR (in words) ([3]; phosphate buffer pH 7, 18 hours)
1 | Cc1cc(/C=C/c2cccc(C(=O)Sc3ccccc3)c2)cc(C)c1O [Compound 2, (E)-S-phenyl 3-(4-hydroxy-3,5-dimethylstyryl)benzothioate] | remain non-fluorescent | None of these compounds were cytotoxic to IMR-32 cells | 22 min | about 1100 fold |  | 
2 | Cc1cc(/C=C/c2cccc(C(=O)Oc3ccc(F)cc3)c2)cc(C)c1O [Compound 4, (E)-4-fluorophenyl 3-(4-hydroxy-3,5-dimethylstyryl)benzoate] | remain non-fluorescent |  |  | about 560 fold | None of these compounds were cytotoxic to IMR-32 cells | 
3 | Cc1cc(/C=C/c2cc(C(=O)Sc3ccc(F)cc3)cc(N(C)C)c2)cc(C)c1O [Compound A2, (E)-S-4-fluorophenyl 3-(dimethylamino)-5-(4-hydroxy-3,5-dimethylstyryl)-benzothioate] | no significant fluorescence increase |  |  |  |  | bright blue fluorescence
